In patent US9587005B2 (priority 2010, dated 2017):
Like-named read-outs stand apart in the source and are kept apart here. *1 amine or outer side, *2 acyl side, *3 side chain or, on linkers, in order; H or OH if unused. Where a SMILES comes first, the peptide text is derived from it. Bridges are numbered along the chain shown (N, C = ends). Where no end group is shown, it is not given here. Side-chain parts run from the residue outwards. [ ]: non-standard residue; d: D form. The star is where a group is joined. Phe(4-NH2) = Nc1ccc(C[C@H](N)C(=O)O)cc1; γGlu = O=C(O)[C@H](CCC(=O)[*:2])N[*:1]; X6 = CCCCCCCCCCCCCCCCC(CC(=O)*)C(=O)O; Palmitoyl = CCCCCCCCCCCCCCCC(=O)*; PEG4 = NCCOCCOCCOCCOCCC(=O)O; Aib = CC(C)(N)C(=O)O

How the values were obtained:
Format in all cases: cell-based
GIP receptor = biological target: T1, GIP receptor (Homo sapiens, UniProt P48546); assay: cAMP induction, firefly luciferase reporter assay in HEK293 cells co-transfected with GIP receptor; conditions: for GIPR relative activity: Table 3, relative to the activity of the native hormone
T1 sequence (P48546 22-466): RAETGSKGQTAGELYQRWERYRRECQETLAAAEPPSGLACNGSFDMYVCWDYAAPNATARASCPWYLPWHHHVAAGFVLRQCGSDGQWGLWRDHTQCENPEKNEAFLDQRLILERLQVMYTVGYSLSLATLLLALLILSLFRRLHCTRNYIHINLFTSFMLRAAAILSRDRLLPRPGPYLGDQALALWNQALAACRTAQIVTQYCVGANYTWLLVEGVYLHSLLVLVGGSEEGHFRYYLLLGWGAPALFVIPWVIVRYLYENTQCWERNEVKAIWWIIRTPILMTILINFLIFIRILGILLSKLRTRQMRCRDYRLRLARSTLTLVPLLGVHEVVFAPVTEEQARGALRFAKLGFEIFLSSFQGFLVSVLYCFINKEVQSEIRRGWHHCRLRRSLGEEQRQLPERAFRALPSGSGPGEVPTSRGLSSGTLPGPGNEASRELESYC

GLP-1 receptor = biological target: T2, GLP-1 receptor (Homo sapiens, UniProt P43220); assay: cAMP induction, firefly luciferase reporter assay in HEK293 cells co-transfected with GLP-1 receptor; conditions: for GLP-1R relative activity: Table 3, relative to the activity of the native hormone
T2 construct: expressed in transfected cells; host or cells: HEK293
Excerpt: (§1) This example describes an exemplary method of testing the biological activity of the peptides of the present disclosures, which method involves assaying cAMP synthesis.

glucagon receptor = biological target: T3, glucagon receptor (Homo sapiens, UniProt P47871); assay: cAMP induction, firefly luciferase reporter assay in HEK293 cells co-transfected with glucagon receptor; conditions: for GR relative activity: Table 3, relative to the activity of the native hormone
T3 construct: expressed in transfected cells; host or cells: HEK293
Excerpt: as §1

[1] = GIP Receptor EC50, Table 11, Example 18
[2] = GLP-1 Receptor EC50, Table 11, Example 18
[3] = Table 3, Example 8, read-out: GIPR EC50
[4] = Table 3, Example 8, read-out: GLP-1R EC50

T2 sequence (P43220 24-463): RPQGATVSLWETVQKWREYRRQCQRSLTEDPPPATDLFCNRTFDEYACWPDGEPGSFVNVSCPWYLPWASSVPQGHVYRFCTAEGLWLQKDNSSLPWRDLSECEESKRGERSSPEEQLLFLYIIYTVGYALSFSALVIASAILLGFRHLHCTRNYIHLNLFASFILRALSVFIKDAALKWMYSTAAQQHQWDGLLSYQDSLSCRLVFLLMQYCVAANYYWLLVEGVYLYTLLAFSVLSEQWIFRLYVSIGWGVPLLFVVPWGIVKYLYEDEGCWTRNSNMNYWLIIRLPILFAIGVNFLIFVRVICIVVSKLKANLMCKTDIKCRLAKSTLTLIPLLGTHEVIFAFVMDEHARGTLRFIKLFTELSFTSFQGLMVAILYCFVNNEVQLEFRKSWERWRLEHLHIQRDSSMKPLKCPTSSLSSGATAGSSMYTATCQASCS
T3 sequence (P47871 26-477): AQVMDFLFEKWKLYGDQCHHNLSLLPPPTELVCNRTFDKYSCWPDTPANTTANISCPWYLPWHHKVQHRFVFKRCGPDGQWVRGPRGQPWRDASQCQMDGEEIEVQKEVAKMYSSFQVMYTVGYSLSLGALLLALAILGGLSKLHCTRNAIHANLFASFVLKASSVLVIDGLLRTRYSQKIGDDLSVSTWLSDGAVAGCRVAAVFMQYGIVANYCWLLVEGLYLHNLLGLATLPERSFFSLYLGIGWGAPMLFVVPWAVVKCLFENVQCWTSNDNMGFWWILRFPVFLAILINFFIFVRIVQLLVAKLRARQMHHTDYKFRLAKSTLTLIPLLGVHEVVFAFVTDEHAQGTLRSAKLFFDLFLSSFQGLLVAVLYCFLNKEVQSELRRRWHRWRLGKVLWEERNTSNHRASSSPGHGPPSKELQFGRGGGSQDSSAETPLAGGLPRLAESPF

## CCCCCCCCCCCCCCCC(=O)N[C@@H](CCC(=O)NCCCC[C@H](NC(=O)[C@H](CC(=O)O)NC(=O)[C@H](CO)NC(=O)[C@@H](NC(=O)[C@H](Cc1ccccc1)NC(=O)[C@@H](NC(=O)CNC(=O)[C@H](CCC(N)=O)NC(=O)C(C)(C)NC(=O)[C@@H](N)Cc1c[nH]cn1)[C@@H](C)O)[C@@H](C)O)C(=O)N[C@@H](CO)C(=O)N[C@@H](CCCCN)C(=O)N[C@@H](Cc1ccc(O)cc1)C(=O)N[C@@H](CC(C)C)C(=O)N[C@@H](CC(=O)O)C(=O)N[C@@H](CCC(=O)O)C(=O)N[C@@H](CCCNC(=N)N)C(=O)N[C@@H](CCCNC(=N)N)C(=O)N[C@@H](C)C(=O)NC(C)(C)C(=O)N[C@@H](CCC(=O)O)C(=O)N[C@@H](Cc1ccccc1)C(=O)N[C@H](C(=O)N[C@@H](CCC(N)=O)C(=O)N[C@@H](Cc1c[nH]c2ccccc12)C(=O)N[C@@H](CC(C)C)C(=O)N[C@@H](CC(C)C)C(=O)N[C@@H](CC(=O)O)C(=O)N[C@H](C(N)=O)[C@@H](C)O)C(C)C)C(=O)O [compound 31] (H-H[Aib]QGTFTSDK([γGlu-Palmitoyl])SKYLDERRA[Aib]EFVQWLLDT-NH2; N-terminus assumed)
GIP receptor; EC50 (nM) at GIP Receptor, Table 4, Example 9, composite of multiple different activity assays
  EC50: 0.008 nM
GIP receptor; EC50 (nM) at GIP Receptor, Table 7, Example 13
  EC50: 0.008 nM
GLP-1 receptor; EC50 (nM) at GLP-1 Receptor, Table 4, Example 9, composite of multiple different activity assays
  EC50: 0.0044 nM
Glucagon receptor; EC50 (nM) at Glucagon Receptor, Table 4, Example 9, composite of multiple different activity assays
  EC50: 0.008 nM
Glucagon receptor; EC50 (nM) at Glucagon Receptor, Table 7, Example 13
  EC50: 0.008 nM

## H-H[Aib]QGTFTSDYSKYLDERAAQDFVQWLLDGGPSSGAPPPSK([PEG4-γGlu-Palmitoyl])G-NH2 [SEQ ID NO: 158]
GIP receptor; [1]
  EC50: 0.005 nM
GLP-1 receptor; [2]
  EC50: 0.003 nM
Glucagon receptor; Glucagon Receptor EC50, Table 11, Example 18
  EC50: 0.004 nM

## H[Aib]QGTFTSDYSKYLDERAAQDFVQWLLDGGPSSGAPPPSK(X6)G-NH2 [SEQ ID NO: 156]
GIP receptor; [1]
  EC50: 0.006 nM
GLP-1 receptor; [2]
  EC50: 0.003 nM
Glucagon receptor
  EC50: 0.003 nM

## Example 8 peptide: Tyr1, AIB2, Glu16/Lys20 lactam, Leu-Ala-Gly 27-29, GPSSGAPPPS 30-39, or a peptide lacking a lactam [mt-217]
GIP receptor; [3]
  EC50: 9.57 nM
GIP receptor
  GIPR relative activity: 0.20%
GLP-1 receptor; [4]
  EC50: 0.222 nM
GLP-1 receptor
  GLP-1R relative activity: 11.26%
Glucagon receptor
  GR relative activity: 0.82%

## H[Aib]QGTFTSDYSKYLDERAAQDFVQWLLDGGPSSGAPPPS[Phe(4-NH2)]([γGlu-γGlu-Palmitoyl])G-NH2 [SEQ ID NO: 145]
GIP receptor
  EC50: 0.017 nM
GLP-1 receptor
  EC50: 0.002 nM
Glucagon receptor
  EC50: 0.002 nM

## CCCCCCCCCCCCCCCC(=O)N[C@@H](CCC(=O)NCCCC[C@H](NC(=O)[C@H](CC(=O)O)NC(=O)[C@H](CO)NC(=O)[C@@H](NC(=O)[C@H](Cc1ccccc1)NC(=O)[C@@H](NC(=O)CNC(=O)[C@H](CCC(N)=O)NC(=O)C(C)(C)NC(=O)[C@@H](N)Cc1c[nH]cn1)[C@@H](C)O)[C@@H](C)O)C(=O)N[C@@H](CO)C(=O)N[C@@H](CCCCN)C(=O)N[C@@H](Cc1ccc(O)cc1)C(=O)N[C@@H](CC(C)C)C(=O)N[C@@H](CC(=O)O)C(=O)N[C@@H](CCC(=O)O)C(=O)N[C@@H](CCCNC(=N)N)C(=O)N[C@@H](CCCNC(=N)N)C(=O)N[C@@H](C)C(=O)NC(C)(C)C(=O)N[C@@H](CCC(=O)O)C(=O)N[C@@H](Cc1ccccc1)C(=O)N[C@H](C(=O)N[C@@H](CCC(N)=O)C(=O)N[C@@H](Cc1c[nH]c2ccccc12)C(=O)N[C@@H](CC(C)C)C(=O)N[C@@H](CC(C)C)C(=O)N[C@@H](CC(=O)O)C(=O)NCC(=O)NCC(=O)N1CCC[C@H]1C(=O)N[C@@H](CO)C(=O)N[C@@H](CO)C(=O)NCC(=O)N[C@@H](C)C(=O)N1CCC[C@H]1C(=O)N1CCC[C@H]1C(=O)N1CCC[C@H]1C(=O)N[C@@H](CO)C(N)=O)C(C)C)C(=O)O [compound 79] (H-H[Aib]QGTFTSDK([γGlu-Palmitoyl])SKYLDERRA[Aib]EFVQWLLDGGPSSGAPPPS-NH2; N-terminus assumed)
GIP receptor; EC50 (nM) at GIP Receptor, Table 6, Example 12
  EC50: 0.003 nM
GLP-1 receptor; EC50 (nM) at GLP-1 Receptor, Table 6, Example 12
  EC50: 0.006 nM
Glucagon receptor; EC50 (nM) at Glucagon Receptor, Table 6, Example 12
  EC50: 0.004 nM

## Example 8 peptide: Tyr1, AIB2, Glu16/Lys20 lactam, Leu-Ala-Gly 27-29, GPSSGAPPPS 30-39, or a peptide lacking a lactam [mt-227] (Y[Aib]QGTFTSDYSIYLDEQAAKEFVNWLLAGGPSSGAPPPSK([Arg-Cys(PEG 40 kDa)-Ac]); lactam 16-20; not fully specified (C-terminus))
GIP receptor
  GIPR relative activity: 1.29%
GLP-1 receptor
  GLP-1R relative activity: 36.25%
Glucagon receptor
  GR relative activity: 1.27%

## Example 8 peptide: Tyr1, AIB2, Glu16/Lys20 lactam, Leu-Ala-Gly 27-29, GPSSGAPPPS 30-39, or a peptide lacking a lactam [mt-228]
GIP receptor; [3]
  EC50: 2.27 nM
GIP receptor
  GIPR relative activity: 0.75%
GLP-1 receptor; [4]
  EC50: 0.146 nM
GLP-1 receptor
  GLP-1R relative activity: 19.86%
Glucagon receptor
  GR relative activity: 1.01%

## CCCCCCCCCCCCCCCC(=O)N[C@@H](CCC(=O)NCCCC[C@H](NC(=O)[C@H](CC(=O)O)NC(=O)[C@H](CC(C)C)NC(=O)[C@H](Cc1ccc(O)cc1)NC(=O)[C@H](CCCCN)NC(=O)[C@H](CO)NC(=O)[C@H](Cc1ccc(O)cc1)NC(=O)[C@H](CC(=O)O)NC(=O)[C@H](CO)NC(=O)[C@@H](NC(=O)[C@H](Cc1ccccc1)NC(=O)[C@@H](NC(=O)CNC(=O)[C@H](CCC(N)=O)NC(=O)C(C)(C)NC(=O)[C@@H](N)Cc1c[nH]cn1)[C@@H](C)O)[C@@H](C)O)C(=O)N[C@@H](CCCNC(=N)N)C(=O)N[C@@H](C)C(=O)N[C@@H](C)C(=O)N[C@@H](CCC(N)=O)C(=O)N[C@@H](CC(=O)O)C(=O)N[C@@H](Cc1ccccc1)C(=O)N[C@H](C(=O)N[C@@H](CCC(N)=O)C(=O)N[C@@H](Cc1c[nH]c2ccccc12)C(=O)N[C@@H](CC(C)C)C(=O)N[C@@H](CC(C)C)C(=O)N[C@@H](CC(=O)O)C(=O)NCC(=O)NCC(=O)N1CCC[C@H]1C(=O)N[C@@H](CO)C(=O)N[C@@H](CO)C(=O)NCC(=O)N[C@@H](C)C(=O)N1CCC[C@H]1C(=O)N1CCC[C@H]1C(=O)N1CCC[C@H]1C(=O)N[C@@H](CO)C(N)=O)C(C)C)C(=O)O [SEQ ID NO: 153] (H-H[Aib]QGTFTSDYSKYLDK([γGlu-Palmitoyl])RAAQDFVQWLLDGGPSSGAPPPS-NH2; N-terminus assumed)
GIP receptor; Table 10, Example 16, read-out: GIP-1 Receptor EC50
  EC50: 0.276 nM
GLP-1 receptor; GLP-1 Receptor EC50, Table 10, Example 16
  EC50: 0.007 nM
Glucagon receptor; Glucagon Receptor EC50, Table 10, Example 16
  EC50: 0.012 nM

## H[Aib]QGTFTSDYSKYLDERAAQDFVQWLLAGGPSSGAPPPSK([γGlu-γGlu-Palmitoyl])G-NH2 [SEQ ID NO: 203]
GIP receptor; EC50 (nM) at GIP receptor, Table 16, Example 24
  EC50: 0.007 nM
GLP-1 receptor; EC50 (nM) at GLP-1 receptor, Table 16, Example 24
  EC50: 0.001 nM
Glucagon receptor; EC50 (nM) at glucagon receptor, Table 16, Example 24
  EC50: 0.003 nM

## CCCCCCCCCCCCCCCC(=O)N[C@@H](CCC(=O)NCCCC[C@H](NC(=O)CC[C@H](NC(=O)CCCCCCCCCCCCCCC)C(=O)O)C(=O)NCCCC[C@H](NC(=O)[C@H](CC(=O)O)NC(=O)[C@H](CO)NC(=O)[C@@H](NC(=O)[C@H](Cc1ccccc1)NC(=O)[C@@H](NC(=O)CNC(=O)[C@H](CCC(N)=O)NC(=O)C(C)(C)NC(=O)[C@@H](N)Cc1c[nH]cn1)[C@@H](C)O)[C@@H](C)O)C(=O)N[C@@H](CO)C(=O)N[C@@H](CCCCN)C(=O)N[C@@H](Cc1ccc(O)cc1)C(=O)N[C@@H](CC(C)C)C(=O)N[C@@H](CC(=O)O)C(=O)N[C@@H](CCC(=O)O)C(=O)N[C@@H](CCCNC(=N)N)C(=O)N[C@@H](C)C(=O)N[C@@H](C)C(=O)N[C@@H](CCC(N)=O)C(=O)N[C@@H](CC(=O)O)C(=O)N[C@@H](Cc1ccccc1)C(=O)N[C@H](C(=O)N[C@@H](CCC(N)=O)C(=O)N[C@@H](Cc1c[nH]c2ccccc12)C(=O)N[C@@H](CC(C)C)C(=O)N[C@@H](CC(C)C)C(=O)N[C@@H](CC(=O)O)C(=O)NCC(=O)NCC(=O)N1CCC[C@H]1C(=O)N[C@@H](CO)C(=O)N[C@@H](CO)C(=O)NCC(=O)N[C@@H](C)C(=O)N1CCC[C@H]1C(=O)N1CCC[C@H]1C(=O)N1CCC[C@H]1C(=O)N[C@@H](CO)C(N)=O)C(C)C)C(=O)O [SEQ ID NO: 160]
GIP receptor; Table 12, Example 19, read-out: EC50 (cAMP, nmole) GIPR
  EC50: 0.015 nM
GLP-1 receptor; Table 12, Example 19, read-out: EC50 (cAMP, nmole) GLPR
  EC50: 0.007 nM
Glucagon receptor; Table 12, Example 19, read-out: EC50 (cAMP, nmole) GCGR
  EC50: 0.024 nM

## Example 8 peptide: Tyr1, AIB2, Glu16/Lys20 lactam, Leu-Ala-Gly 27-29, GPSSGAPPPS 30-39, or a peptide lacking a lactam [mt-219]
GIP receptor; [3]
  EC50: 6.17 nM
GIP receptor
  GIPR relative activity: .31%
GLP-1 receptor; [4]
  EC50: 0.151 nM
GLP-1 receptor
  GLP-1R relative activity: 16.56%
Glucagon receptor
  GR relative activity: 0.65%
